# Source: patent US20210260010A1, “COMPOSITIONS AND METHODS FOR THE REDUCTION OR TREATMENT OF INFLAMMATION” (AXCELLA HEALTH INC., priority 2018, published 2021)
# Legend:
# IL-6 = assay: LPS-induced IL-6 secretion in primary human monocyte-derived macrophages (ELISA); assay type: cell-based; details: for IL-6 Measurements Mean: LPS 0.15 ng/mL, baseline subtracted; for LPS-induced IL-6 secretion: macrophages, 0.15 ng/mL LPS
# Experimental: Unpurified buffy coats (Research Blood Components) were carefully poured into 50 mL centrifuge tubes and diluted with room temperature Dulbecco's Phosphate Buffered Saline (dPBS) with Calcium and Magnesium (Gibco). Diluted buffy coats were further divided into four total 50 mL centrifuge tubes at 20 mL per tube. Lymphocyte Separation Medium (Corning) was carefully pipetted to the bottom of each centrifuge tube. Mixtures were centrifuged at 850× g for 32 minutes at 20° C. with 0 deceleration and acceleration.
# The PBMC layer was separated from other components after centrifugation and added to new 50 mL centrifuge tube containing 25 mL dPBS. Total volume was brought up to 50 mL with dPBS and centrifuged at 600×g for 10 minutes at 20° C. with acceleration of 9, deceleration of 5. Supernatant was carefully removed from cell pellets. The cell pellets were resuspended using 10 mL dPBS. Total volume was then brought up to 50 mL using dPBS and centrifuged at 450×g for 5 min at 20° C. with acceleration of 9, deceleration of 9. The supernatant removal and cell pellet resuspension was repeated again.
# The supernatant was then carefully removed from cell pellets. Cell pellets were resuspended in 10 mL dPBS without calcium or magnesium and filtered through a 70 uM cell strainer. The total PBMC number was determined using a Cellometer K2 automated cell counter. A total of 5E6 cells were saved for flow cytometric analysis. Remaining cells were centrifuged at 490×g for 5 minutes at 20° C. with acceleration of 9, deceleration of 9.
# CD14+ cells were selected using EasySep™ Human CD14 Positive Selection Kit II ([…] Technologies). Cells were resuspended in cold EasySep™ Buffer ([…] Technologies) at 1×10^8 cells/mL. A total of 100 uL/mL EasySep™ Human CD14 Positive Selection Cocktail II was added to the cell suspension, mixed, and incubated at room temperature for 10 minutes. A total of 100 uL/mL RapidSpheres were added to the mixture and incubated at room temperature for 3 minutes after mixing, then RoboSep buffer was added to bring up the total volume to 10 mL. The mixture in a 15 mL tube was placed in magnet and incubated at room temperature for 3 minutes. Supernatant was discarded and 10 mL fresh EasySep™ buffer was added to 15 mL tube. The addition of RoboSep buffer, mixing, and discarding of supernatant was repeated two more times.
# Negative and positive fractions were centrifuged at 490×g for 5 minutes at 20° C. with acceleration of 9, deceleration of 9, and resuspended in DMEM (Gibco) and 10% Heat Inactivated Fetal Bovine Serum (Atlanta Bio) and Penicillin/Streptomycin. Cells were counted and centrifuged again at 490× g for 5 minutes at 20° C. with acceleration of 9, deceleration of 9. After centrifugation, cell were resuspended in DMEM (Gibco) and 10% Heat Inactivated Fetal Bovine Serum (Atlanta Bio) and Penicillin/Streptomycin containing 500 U/mL […] and plated at 1-2×10^6 cells/mL on 10 cm tissue culture plates. Cells were kept in 37° C., 5% CO2 in between feedings/harvest.
# Cells were fed every 3-4 days by removing media and unattached cells, centrifuging at 490× g for 5 minutes at 20° C. with acceleration of 9, deceleration of 9, and resuspending in fresh DMEM (Gibco) and 10% Heat Inactivated Fetal Bovine Serum (Atlanta Bio) and Penicillin/Streptomycin containing GM-CSF. Resuspended cells were seeded back onto 10 cm tissue culture plates and incubated at 37° C., 5% CO2. Differentiated macrophages were used for subsequent experiments.
# Primary human PMBC derived macrophages were seeded on day 0 at 3.0E4 cells per well in 96-well microplates (ThermoFisher) in Dulbecco's Modified Eagle Medium (DMEM) (Gibco) supplemented with penicillin-streptomycin (Hyclone) and 10% heat inactivated fetal bovine serum (HI-FBS) (Atlanta Bio) and incubated overnight at 37° C., 5% CO2. On day 1, cells were washed once with 150 uL per well DPBS (Gibco) and treated with 75 uL of: • a. […]
# CCL18 = assay: IL-4 induced CCL18 secretion in primary human monocyte-derived macrophages (ELISA); assay type: cell-based; details: for Donor 1 CCL18 Measurements Mean / Donor 2 CCL18 Measurements Mean: relative to vehicle control; for CCL18 Measurements: Mean (fold change relative to vehicle control): IL-4 induced; for IL-4 induced CCL18 secretion (fold change relative to vehicle control): macrophages
# Experimental: Lymphocytes were purified from unpurified buffy coats (Research Blood Components) using Lymphocyte Separation Medium (Corning). After centrifugation, the PBMC layer was extracted and rinsed several times using Dulbecco's phosphate-buffered saline (DPBS; Gibco). After straining PBMCs through a 70 uM cell strainer, cells were resuspended and counted using a Cellometer K2 automated cell counter.
# CD14+ cells were selected using EasySep™ Human CD14 Positive Selection Kit II ([…] Technologies) according to manufacturer-supplied protocols. Following isolation CD14+ cells were seeded into 10 cm tissue culture plates and differentiated into macrophages using M-CSF (Peprotech).
# On day 0, primary human PBMC derived macrophages were seeded in Dulbecco's Modified Eagle Medium (DMEM) (Gibco) supplemented with penicillin-streptomycin (Hyclone) and 10% heat inactivated fetal bovine serum (HI-FBS) (Atlanta Bio) into 96-well microplates (ThermoFisher) and incubated overnight at 37° C., 5% CO2. On day 1, cells were washed once with DPBS and then treated with: • a. Amino acid free DMEM (US Biologicals) containing a defined custom amino acid concentration based on the mean physiological concentrations in blood based on values published in the Human Metabolome Database (HMDB), with 6 mM glucose, 1 mM sodium pyruvate, 10 mM HEPES, penicillin-streptomycin; or • b. The same medium described above with one amino acid or amino acid combination at various concentrations
# On day 2, cells were treated with the same mediums described above supplemented with recombinant human interleukin-4 (IL-4; Peprotech). Control wells were treated with tofacitinib (Tocris) and IL-4, PBS with IL-4, or phosphate buffered saline (PBS) alone.
# On day 3, the supernatant was collected and immediately frozen in −80° C. freezer. Cells were washed once with DPBS and viability was assessed using the WST-8 Cell Proliferation Cytotoxicity Assay (Dojindo) according to manufacturer-supplied protocol. Following the assay, cells were washed twice with PBS and fixed with 4% paraformaldehyde. Protein levels in supernatant samples were analyzed by ELISA for CCL18 using commercially available kits (R&D Systems) according to manufacturer-supplied protocols.
smiles,measurement,setting,value
"N=C(N)NCCC[C@H](N)C(=O)O [Arginine, L-Arginine]",IL-6 Measurements Mean,"IL-6; Donor 1, Conc. 109 μM (baseline)",0
same,IL-6 Measurements Mean,"IL-6; Donor 1, Conc. 1088 μM",−181.36
same,IL-6 Measurements Mean,"IL-6; Donor 1, Conc. 2720 μM",−186.57
same,IL-6 Measurements Mean,"IL-6; Donor 1, Conc. 5440 μM",357.4394
same,IL-6 Measurements Mean,"IL-6; Donor 2, Conc. 109 μM (baseline)",2.37E−15
same,IL-6 Measurements Mean,"IL-6; Donor 2, Conc. 1088 μM",−9.701
same,IL-6 Measurements Mean,"IL-6; Donor 2, Conc. 2720 μM",−13.6102
same,IL-6 Measurements Mean,"IL-6; Donor 2, Conc. 5440 μM",−12.4164
same,IL-6 Measurements Mean,"IL-6; Donor 3, Conc. 109 μM (baseline)",0
same,IL-6 Measurements Mean,"IL-6; Donor 3, Conc. 1088 μM",31.5786
same,IL-6 Measurements Mean,"IL-6; Donor 3, Conc. 2720 μM",−7.503
same,IL-6 Measurements Mean,"IL-6; Donor 3, Conc. 5440 μM",−6.81
same,LPS-induced IL-6 secretion,IL-6; Donor 1,increased
same,Donor 1 CCL18 Measurements Mean,"CCL18; Donor 1, Conc. 109 μM",1.131 fold change
same,Donor 1 CCL18 Measurements Mean,"CCL18; Donor 1, Conc. 1088 μM",1.068 fold change
same,Donor 1 CCL18 Measurements Mean,"CCL18; Donor 1, Conc. 2720 μM",1.121 fold change
same,Donor 1 CCL18 Measurements Mean,"CCL18; Donor 1, Conc. 5440 μM",1.277 fold change
same,Donor 2 CCL18 Measurements Mean,"CCL18; Donor 2, Conc. 109 μM",0.9634 fold change
same,Donor 2 CCL18 Measurements Mean,"CCL18; Donor 2, Conc. 1088 μM",0.9846 fold change
same,Donor 2 CCL18 Measurements Mean,"CCL18; Donor 2, Conc. 2720 μM",1.031 fold change
same,Donor 2 CCL18 Measurements Mean,"CCL18; Donor 2, Conc. 5440 μM",1.089 fold change
same,CCL18 Measurements: Mean (fold change relative to vehicle control),"CCL18; Donor 3, Conc. 109 μM",1.138 fold change
same,CCL18 Measurements: Mean (fold change relative to vehicle control),"CCL18; Donor 3, Conc. 1088 μM",0.9131 fold change
same,CCL18 Measurements: Mean (fold change relative to vehicle control),"CCL18; Donor 3, Conc. 2720 μM",1.208 fold change
same,CCL18 Measurements: Mean (fold change relative to vehicle control),"CCL18; Donor 3, Conc. 5440 μM",1.206 fold change
"NC(=O)CC[C@H](N)C(=O)O [Glutamine, L-Glutamine]",IL-6 Measurements Mean,"IL-6; Donor 1, Conc. 749 μM (baseline)",0
same,IL-6 Measurements Mean,"IL-6; Donor 1, Conc. 3747 μM",291.5443
same,IL-6 Measurements Mean,"IL-6; Donor 1, Conc. 11242 μM",397.1745
same,IL-6 Measurements Mean,"IL-6; Donor 1, Conc. 22484 μM",440.1437
same,IL-6 Measurements Mean,"IL-6; Donor 2, Conc. 749 μM (baseline)",2.37E−15
same,IL-6 Measurements Mean,"IL-6; Donor 2, Conc. 3747 μM",22.52
same,IL-6 Measurements Mean,"IL-6; Donor 2, Conc. 11242 μM",63.31
same,IL-6 Measurements Mean,"IL-6; Donor 2, Conc. 22484 μM",34.39
same,IL-6 Measurements Mean,"IL-6; Donor 3, Conc. 749 μM (baseline)",3.79E−14
same,IL-6 Measurements Mean,"IL-6; Donor 3, Conc. 3747 μM",25.35
same,IL-6 Measurements Mean,"IL-6; Donor 3, Conc. 11242 μM",98.4903
same,IL-6 Measurements Mean,"IL-6; Donor 3, Conc. 22484 μM",108.5158
same,LPS-induced IL-6 secretion,IL-6; Donor 1,increased
same,LPS-induced IL-6 secretion,IL-6; Donor 2,increased
same,LPS-induced IL-6 secretion,IL-6; Donor 3,significantly increased
same,Donor 1 CCL18 Measurements Mean,"CCL18; Donor 1, Conc. 749 μM",1.382 fold change
same,Donor 1 CCL18 Measurements Mean,"CCL18; Donor 1, Conc. 3747 μM",1.492 fold change
same,Donor 1 CCL18 Measurements Mean,"CCL18; Donor 1, Conc. 11242 μM",1.645 fold change
same,Donor 1 CCL18 Measurements Mean,"CCL18; Donor 1, Conc. 22484 μM",1.992 fold change
same,Donor 2 CCL18 Measurements Mean,"CCL18; Donor 2, Conc. 749 μM",1.4 fold change
same,Donor 2 CCL18 Measurements Mean,"CCL18; Donor 2, Conc. 3747 μM",1.559 fold change
same,Donor 2 CCL18 Measurements Mean,"CCL18; Donor 2, Conc. 11242 μM",1.857 fold change
same,Donor 2 CCL18 Measurements Mean,"CCL18; Donor 2, Conc. 22484 μM",2.219 fold change
same,CCL18 Measurements: Mean (fold change relative to vehicle control),"CCL18; Donor 3, Conc. 749 μM",1.56 fold change
same,CCL18 Measurements: Mean (fold change relative to vehicle control),"CCL18; Donor 3, Conc. 3747 μM",1.606 fold change
same,CCL18 Measurements: Mean (fold change relative to vehicle control),"CCL18; Donor 3, Conc. 11242 μM",2.428 fold change
same,CCL18 Measurements: Mean (fold change relative to vehicle control),"CCL18; Donor 3, Conc. 22484 μM",2.33 fold change
same,IL-4 induced CCL18 secretion (fold change relative to vehicle control),CCL18; Donor 1,significantly increased
same,IL-4 induced CCL18 secretion (fold change relative to vehicle control),CCL18; Donor 2,significantly increased
same,IL-4 induced CCL18 secretion (fold change relative to vehicle control),CCL18; Donor 3,significantly increased
